In ChEMBL document CHEMBL3046027, “In vitro and in vivo antifungal activity of synthetic pure isothiocyanates against Sclerotinia sclerotiorum” (Pest Manag Sci, 2011):
pEC50: −log10 of the molar value.

What was measured:
Sclerotinia sclerotiorum [1] = test: Antifungal activity against Sclerotinia sclerotiorum assessed as inhibition of mycelial growth in contact phase at 591 umol/l measured at 20 degC after 5 days; type: functional; conditions: 120 h, read-out: GI
Sclerotinia sclerotiorum [2] = test: Fungitoxic activity in Sclerotinia sclerotiorum assessed as inhibition of mycelial growth in contact phase at 2531 umol/l measured at 20 degC after 5 days relative to control; type: functional; conditions: 120 h, read-out: GI
Sclerotinia sclerotiorum [3] = test: Fungistatic activity in Sclerotinia sclerotiorum assessed as viability in volatile phase at 844 umol/l measured at 20 degC after 5 days relative to control; type: functional; conditions: 120 h, read-out: GI
Sclerotinia sclerotiorum [4] = test: Antifungal activity against Sclerotinia sclerotiorum assessed as inhibition of mycelial growth in contact phase at 759 umol/l measured at 20 degC after 5 days; type: functional; conditions: 120 h, read-out: GI
Sclerotinia sclerotiorum [5] = test: Antifungal activity against Sclerotinia sclerotiorum assessed as inhibition of germination in volatile phase at 844 umol/l measured at 20 degC after 5 days; type: functional; conditions: 120 h
Sclerotinia sclerotiorum [6] = test: Antifungal activity against Sclerotinia sclerotiorum assessed as inhibition of mycelial growth in volatile phase at 42 umol/l measured at 20 degC after 5 days; type: functional; conditions: 120 h, read-out: GI
Sclerotinia sclerotiorum [7] = test: Antifungal activity against Sclerotinia sclerotiorum assessed as inhibition of mycelial growth in contact phase at 1688 umol/l measured at 20 degC after 5 days; type: functional; conditions: 120 h, read-out: GI
Sclerotinia sclerotiorum [8] = test: Antifungal activity against Sclerotinia sclerotiorum assessed as inhibition of germination in volatile phase at 84 umol/l measured at 20 degC after 5 days; type: functional; conditions: AT84, 120 h
Sclerotinia sclerotiorum [9] = test: Fungistatic activity in Sclerotinia sclerotiorum assessed as inhibition of carpogenic germination in volatile phase at 42 umol/l measured at 20 degC after 5 days relative to control; type: functional; conditions: 120 h
Sclerotinia sclerotiorum [10] = test: Antifungal activity against Sclerotinia sclerotiorum assessed as inhibition of mycelial growth in contact phase at 2531 umol/l measured at 20 degC after 5 days; type: functional; conditions: 120 h, read-out: GI
Sclerotinia sclerotiorum [11] = test: Fungistatic activity in Sclerotinia sclerotiorum assessed as inhibition of mycelial growth in volatile phase at 588 umol/l measured at 20 degC after 5 days relative to control; type: functional; conditions: 120 h, read-out: GI
Sclerotinia sclerotiorum [12] = test: Antifungal activity against Sclerotinia sclerotiorum assessed as inhibition of mycelial growth in volatile phase at 422 umol/l measured at 20 degC after 5 days; type: functional; conditions: 120 h, read-out: GI
Sclerotinia sclerotiorum [13] = test: Fungistatic activity in Sclerotinia sclerotiorum assessed as inhibition of mycelial growth in contact phase at 1688 umol/l measured at 20 degC after 5 days relative to control; type: functional; conditions: 120 h, read-out: GI
Sclerotinia sclerotiorum [14] = test: Fungistatic activity in Sclerotinia sclerotiorum assessed as inhibition of carpogenic germination in volatile phase at 84 umol/l measured at 20 degC after 5 days relative to control; type: functional; conditions: AT84, 120 h
Sclerotinia sclerotiorum [15] = test: Fungistatic activity in Sclerotinia sclerotiorum assessed as sclerotial viability measured at 20 degC after 5 days; type: functional, organism-based; conditions: 120 h
Sclerotinia sclerotiorum [16] = test: Fungistatic activity in Sclerotinia sclerotiorum assessed as inhibition of carpogenic germination in volatile phase at 840 umol/l measured at 20 degC after 5 days relative to control; type: functional; conditions: 120 h
Sclerotinia sclerotiorum [17] = test: Antifungal activity against Sclerotinia sclerotiorum assessed as inhibition of mycelial growth in volatile phase at 840 umol/l measured at 20 degC after 5 days; type: functional; conditions: 120 h, read-out: GI
Sclerotinia sclerotiorum [18] = test: Antifungal activity against Sclerotinia sclerotiorum assessed as inhibition of germination in volatile phase at 422 umol/l measured at 20 degC after 5 days; type: functional; conditions: 120 h
Sclerotinia sclerotiorum [19] = test: Antifungal activity against Sclerotinia sclerotiorum assessed as inhibition of germination in volatile phase at 253 umol/l measured at 20 degC after 5 days; type: functional; conditions: 120 h
Sclerotinia sclerotiorum [20] = test: In vivo antifungal Sclerotinia sclerotiorum in Pepper (Capsicum annuum L. cv. Sera Demre) assessed as inhibition of mycelial growth in volatile phase at 168 umol/L measured after 10 to 14 weeks; type: functional
Sclerotinia sclerotiorum [21] = test: Fungistatic activity in Sclerotinia sclerotiorum assessed as inhibition of carpogenic germination in volatile phase at 422 umol/l measured at 20 degC after 5 days relative to control; type: functional; conditions: 120 h
Sclerotinia sclerotiorum [22] = test: Antifungal activity against Sclerotinia sclerotiorum assessed as inhibition of mycelial growth in contact phase at 844 umol/l measured at 20 degC after 5 days; type: functional; conditions: 120 h, read-out: GI
Sclerotinia sclerotiorum [23] = test: Antifungal activity against Sclerotinia sclerotiorum assessed as inhibition of mycelial growth in volatile phase at 84 umol/l measured at 20 degC after 5 days; type: functional; conditions: 120 h, read-out: GI
Sclerotinia sclerotiorum [24] = test: Antifungal activity against Sclerotinia sclerotiorum assessed as inhibition of mycelial growth in volatile phase at 588 umol/l measured at 20 degC after 5 days; type: functional; conditions: 120 h, read-out: GI
Sclerotinia sclerotiorum [25] = test: Fungistatic activity in Sclerotinia sclerotiorum assessed as inhibition of mycelial growth in contact phase measured at 20 degC after 5 days; type: functional, organism-based; conditions: 120 h
Sclerotinia sclerotiorum [26] = test: Antifungal activity against Sclerotinia sclerotiorum assessed as inhibition of germination in volatile phase at 42 umol/l measured at 20 degC after 5 days; type: functional; conditions: 120 h
Sclerotinia sclerotiorum [27] = test: Fungistatic activity in Sclerotinia sclerotiorum assessed as inhibition of mycelial growth in volatile phase measured at 20 degC after 5 days; type: functional, organism-based; conditions: 120 h
Sclerotinia sclerotiorum [28] = test: In vivo antifungal Sclerotinia sclerotiorum in Pepper (Capsicum annuum L. cv. Sera Demre) assessed as inhibition of mycelial growth in volatile phase at 84 umol/L measured after 10 to 14 weeks; type: functional

CCCCN=C=S [BUTYL ISOTHIOCYANATE]
inhibition of growth at 591 µM (Sclerotinia sclerotiorum [1]): 5% | inhibition of growth at 2531 µM (Sclerotinia sclerotiorum [2]): 100% | inhibition of growth at 844 µM (Sclerotinia sclerotiorum [3]): 100% | inhibition of growth at 759 µM (Sclerotinia sclerotiorum [4]): 11.7% | inhibition at 844 µM (Sclerotinia sclerotiorum [5]): 100% | inhibition of growth at 42 µM (Sclerotinia sclerotiorum [6]): 22.8% | inhibition of growth at 1688 µM (Sclerotinia sclerotiorum [7]): 100% | inhibition at 84 µM (Sclerotinia sclerotiorum [8]): 0% | inhibition at 42 µM (Sclerotinia sclerotiorum [9]): 77.5% | inhibition of growth at 2531 µM (Sclerotinia sclerotiorum [10]): 100% | inhibition of growth at 588 µM (Sclerotinia sclerotiorum [11]): 100% | inhibition of growth at 422 µM (Sclerotinia sclerotiorum [12]): 70.3% | inhibition of growth at 1688 µM (Sclerotinia sclerotiorum [13]): 100% | inhibition at 84 µM (Sclerotinia sclerotiorum [14]): 80% | pEC50 (Sclerotinia sclerotiorum [15]): 3.39 | inhibition at 840 µM (Sclerotinia sclerotiorum [16]): 92.5% | inhibition of growth at 840 µM (Sclerotinia sclerotiorum [17]): 100% | inhibition at 422 µM (Sclerotinia sclerotiorum [18]): 46.7% | inhibition at 253 µM (Sclerotinia sclerotiorum [19]): 13.3% | inhibition in vivo at 168 µM (Sclerotinia sclerotiorum [20]): 63.3% | inhibition at 422 µM (Sclerotinia sclerotiorum [21]): 82.5% | inhibition of growth at 844 µM (Sclerotinia sclerotiorum [22]): 29.2% | inhibition of growth at 84 µM (Sclerotinia sclerotiorum [23]): 48.7% | inhibition of growth at 588 µM (Sclerotinia sclerotiorum [24]): 72.3% | pEC50 (Sclerotinia sclerotiorum [25]): 3.03 | inhibition at 42 µM (Sclerotinia sclerotiorum [26]): 0% | pEC50 (Sclerotinia sclerotiorum [27]): 4.06 | inhibition in vivo at 84 µM (Sclerotinia sclerotiorum [28]): 31.7%
